# Key:
# [1] = tested on: monocytes isolated from human peripheral blood; assay: Phenotype (CD83, HLA-DR, CD86 expression) by flow cytometry of monocytes differentiated in absence or presence of LPC; assay type: cell-based; settings: 6th day of differentiation; 40 μM LPC added on day 5 for 24 hours
# Procedure: Isolation, placing in culture and initiation of the differentiation of monocytes—The monocytes are isolated from human peripheral blood by means of first density gradient centrifugation (620 g; 20 minutes) in Ficoll-Hypaque, followed by second centrifugation (770 g; 20 minutes) in a 50% Percoll solution. The monocytes are then purified by immunomagnetic depletion (Dynal, Oslo, Norway), using a cocktail of anti-CD19 (hydridoma 4G7) (Becton Dickinson, Francklin Lakes, N.J., USA), anti-CD3 (OKT3, American Type Culture Collection, Rockeville, Md.) and anti-CD56 (NKH1, Beckman Coulter, Fullerton, Calif., USA) monoclonal antibodies. The monocytes thus obtained are then purified to at least 90%, as shown by the absence of CD1a markers and the presence of the CD14 marker. The differentiation of the monocytes into dendritic cells is initiated with 40 ng/ml of recombined human GM-CSF (Granulocyte-Macrophage Colony Stimulating Factor) and 250 U/ml of recombined human interleukin IL-4.
# The monocytes are placed in culture in RPMI 1640 medium (Life Technologies, Rockeville, Md., USA) enriched with 2 mM of glutamine (Life Technologies), 10 mM of Hepes (Life Technologies), […] of gentamycin (Life Technologies) and 10% of lipoprotein-depleted fetal calf serum (LPDS, Sigma, St Quentin-Fallavier, France).
# Treatment of the monocytes with LPC—5 days after the beginning of the differentiation of the monocytes, 40 μM of LPC (L-α-lysophosphatidylcholine; Sigma, St Quentin Fallavier, France) are added to the culture medium for 24 hours. Control cells are also obtained in the absence of LPC in the culture medium.
# The cells used in this analysis are those obtained on the 6th day of differentiation according to the protocol described in example 1.
# The phenotype of the “control” and “LPC” cells is analyzed by flow cytometry on a FACSCalibur (Becton Dickinson, Francklin Lakes, N.J., USA) using FITC (fluorosceine isothiocyanate)-conjugated anti-CD14, anti-HLA-DR and anti-CD80 and PE (phycoerythrin)-conjugated anti-CD1a, anti-CD83, anti-CD86 and anti-CD40 (Beckman Coulter). […]
# [2] = tested on: monocytes isolated from human peripheral blood; assay: Internalization capacity (endocytosis, pinocytosis, macropinocytosis) of differentiated monocytes; assay type: cell-based; settings: control = 100%
# Procedure: The “control” and “LPC” cells used in this analysis are those obtained after 6 days of differentiation according to the protocol described in example 1. These cells are incubated at 37° C.: • for 30 minutes with 1 mg/ml of FITC-T70-Dextran (Sigma) in order to estimate the capacity of these cells for internalization by endocytosis, • for 30 minutes with 1 mg/ml of Lucifer Yellow (ref. L0259, Sigma, St Quentin-Fallavier, France) in order to estimate the capacity of these cells for internalization by pinocytosis, • for 3 hours with carboxylate-modified yellow-green FluoSpheres (trade name, 0.45 μm, Molecular Probes, Leiden, The Netherlands) in order to estimate the capacity of these cells for internalization by macropinocytosis.
# The internalization is stopped on ice with a cold PBS buffer containing 0.1% of BSA (Bovine Serum Albumin) and 0.05% of NaN3. The “control” and “LPC” cells are washed 3 times at 4° C. in this same buffer and the fluorescence is quantified by FACScalibur (trade name, Becton Dickinson).
# [3] = tested on: Gi protein-coupled receptors; assay: Induction of CD86 by LPC after preincubation with pertussis toxin; assay type: cell-based, human; settings: LPC cells = 100%; PTX 100 ng/ml for 3 hours before LPC
# Procedure: The phenotype of the “control” and “LPC” cells is analyzed by flow cytometry on a FACSCalibur (Becton Dickinson, Francklin Lakes, N.J., USA) using FITC (fluorosceine isothiocyanate)-conjugated anti-CD14, anti-HLA-DR and anti-CD80 and PE (phycoerythrin)-conjugated anti-CD1a, anti-CD83, anti-CD86 and anti-CD40 (Beckman Coulter). According to the state of the art, monocytes preferentially have a CD14+ CD1a− phenotype, immature dendritic cells preferentially have a CD14− CD1a+CD86− phenotype, and mature dendritic cells preferentially have a CD14− CD1a intermediate—CD86+ phenotype.
# Initially, in order to determine whether the receptors involved in the action of LPC in the differentiation of monocytes into mature dendritic cells belonged to the family of G protein-coupled receptors, PTX (pertussis toxin; 100 ng/ml), known to block Gi proteins, was added to the culture medium for 3 hours. The culture medium was then changed and the LPC was added as described in example 1.
# BALB/c mice = assay: HEL-specific IgG in serum by ELISA after immunization; assay type: in vivo, mouse; settings: LPC 350 nmol co-injected with HEL, booster after 15 days; FIG. 1
# Procedure: LPC stimulates the production of specific antibodies against a co-injected soluble antigen. LPC dissolved in PBS (350 nmol in 50 μl) is mixed with hen egg lysozyme (HEL, 1 mg/ml) and this mixture is injected into the plantar foot pad of BALB/c mice. The “HEL+LPC” batch of mice receives 50 μl of this mixture in the foot pads of the two hind feet. The “HEL” batch of mice receives 50 μl of HEL solution (1 mg/ml in PBS) in the two feet. After 15 days, a booster injection is given subcutaneously on the 2 flanks. The “HEL+LPC” batch receives, on each flank, 100 μl of a solution of LPC (5 mM) and of HEL (1 mg/ml) in PBS. The “HEL” batch receives, on each flank, 100 μl of a solution of HEL (1 mg/ml) in PBS. Two weeks later, blood is taken from the mice and the IgGs specific for the HEL antigen are assayed by ELISA with respect to a standard IgG solution range. The titration curves giving the absorbance (Abs) as a function of the logarithm of the serum dilution are represented in FIG. 1.
substance,measurement,setting,value
L-α-lysophosphatidylcholine [LPC],Expression of CD83,[1],11.74
same,Expression of CD86,[1],759.69
same,Expression of HLA-DR,[1],146.31
same,Capacity for internalization by endocytosis,[2]; FITC-T70-Dextran 30 minutes,53%
same,Capacity for internalization by macropinocytosis,[2]; FluoSpheres 3 hours,66%
same,Capacity for internalization by pinocytosis,[2]; Lucifer Yellow 30 minutes,49%
same,Induction of CD86,[3],100%
same,Production of IgGs specific for the HEL antigen,BALB/c mice,induces the synthesis of antibodies specific for the antigen

# — patent US7368287B2, “Use of L-α-lysophosphatidylcholine to obtain the differentiation of monocytes into mature dendritic cells in vitro” (Biomerieux, priority 2002, dated 2008)
